Reference: patent US8563729B2, “Thienopyridone derivatives as AMP-activated protein kinase (AMPK) activators” (Merck Patent GmbH, priority 2008, dated 2013)

How the values were obtained:
[1] = biological target: T1, AMPK protein (recombinant α1β1γ2) (Homo sapiens, UniProt Q13131+Q9Y478); assay: AMPK enzymatic activity (Delfia, AMARA peptide substrate); type: biochemical; settings: compound 30 μM vs AMP 30 μM; 125 μM ATP; ratio 90% or higher = direct activator
T1 construct: made in house; host or cells: E. coli
T1 sequence (Q13131 whole entry): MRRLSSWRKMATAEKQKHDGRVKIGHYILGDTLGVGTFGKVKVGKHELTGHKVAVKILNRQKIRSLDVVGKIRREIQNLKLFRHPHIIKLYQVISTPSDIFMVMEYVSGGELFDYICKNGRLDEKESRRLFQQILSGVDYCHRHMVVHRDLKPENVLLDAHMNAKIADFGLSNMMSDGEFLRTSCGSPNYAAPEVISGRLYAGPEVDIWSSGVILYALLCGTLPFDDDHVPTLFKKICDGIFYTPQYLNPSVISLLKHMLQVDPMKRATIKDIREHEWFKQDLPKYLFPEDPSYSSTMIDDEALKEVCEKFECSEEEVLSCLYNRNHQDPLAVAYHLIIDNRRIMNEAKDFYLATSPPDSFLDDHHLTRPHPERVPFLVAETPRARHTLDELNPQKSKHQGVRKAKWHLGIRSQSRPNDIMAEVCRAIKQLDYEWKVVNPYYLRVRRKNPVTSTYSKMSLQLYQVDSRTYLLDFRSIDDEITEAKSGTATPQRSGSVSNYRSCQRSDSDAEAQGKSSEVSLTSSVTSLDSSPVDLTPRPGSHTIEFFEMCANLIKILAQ
T1 sequence (Q9Y478 whole entry): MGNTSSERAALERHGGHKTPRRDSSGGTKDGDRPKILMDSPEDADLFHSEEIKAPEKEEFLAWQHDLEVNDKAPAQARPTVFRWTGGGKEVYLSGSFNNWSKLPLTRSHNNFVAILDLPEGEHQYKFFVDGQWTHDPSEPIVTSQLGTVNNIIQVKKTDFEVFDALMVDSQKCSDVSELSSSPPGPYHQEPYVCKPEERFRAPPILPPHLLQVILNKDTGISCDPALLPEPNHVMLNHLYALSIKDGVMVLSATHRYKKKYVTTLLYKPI
T1 sequence (Q9UGJ0 whole entry partner): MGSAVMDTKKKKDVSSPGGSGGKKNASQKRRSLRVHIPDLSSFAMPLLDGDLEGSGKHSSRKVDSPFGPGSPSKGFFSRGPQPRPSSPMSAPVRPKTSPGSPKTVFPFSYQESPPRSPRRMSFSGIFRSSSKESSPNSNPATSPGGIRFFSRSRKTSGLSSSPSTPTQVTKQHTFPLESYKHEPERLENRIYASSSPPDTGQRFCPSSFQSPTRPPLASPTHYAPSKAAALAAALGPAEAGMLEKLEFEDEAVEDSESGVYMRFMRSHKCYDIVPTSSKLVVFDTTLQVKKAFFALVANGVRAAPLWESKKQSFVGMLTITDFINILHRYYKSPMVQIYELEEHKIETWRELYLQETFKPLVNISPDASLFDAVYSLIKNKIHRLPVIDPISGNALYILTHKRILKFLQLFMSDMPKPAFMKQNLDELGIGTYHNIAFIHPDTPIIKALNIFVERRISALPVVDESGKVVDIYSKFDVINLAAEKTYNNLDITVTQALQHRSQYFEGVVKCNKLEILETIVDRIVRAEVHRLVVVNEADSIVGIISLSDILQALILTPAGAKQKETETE
Experimental: The following biological test allows the determination of the efficacy of such compounds of formula (I) onto AMPK protein (recombinant α1β1γ2).
Human recombinant AMPK enzyme was expressed in E. Coli and was reactivated in vitro by LKB1 prior to enzyme activity determination.
AMPK enzyme activities were assayed by using A Delfia technology. AMPK enzyme activities were carried out in microtiter plates (50 mM Hepes buffer, pH 7.4 with 125 μM ATP respectively) in the presence of a synthetic peptide substrate (AMARAASAAALARRR, the “AMARA” peptide) and activators in serial dilutions. Reactions were initiated by the addition of AMPK (50-100 ng). Following mixing, the plates were incubated for 30 min at room temperature. Enzyme activity was assayed by using an anti-phosphoserine antibody to measure the quantity of phosphate incorporated into the AMARAA.
(§1) N°: Number of the molecule
Activity: Ratio between the % of control (basal activity) of compound of formula (I) at 30 μM and the % of control (basal activity) of AMP (natural substrate) at 30 μM.
Compounds of formula (I) in the table II are considered as direct activator of AMPK if the ratio is 90% or higher.

H-2 Kb cells = assay: Glucose uptake in H-2 Kb cells (in vitro cellular test); type: cell-based, mouse; settings: H-2 Kb cells differentiated in muscle, 4 hours incubation, 2-deoxy-D-[1,2 3H] glucose uptake 10 min
Experimental: Glucose Uptake in H-2 Kb Cells (In Vitro Cellular Test)
The following cellular test allows the determination of the effect of AMPK activators such as compounds of formula (I) onto glucose uptake in a muscle cellular model.
H-1-2 Kb cells derived from heterozygous H-2 Kb tsA58 transgenic mouse were grown in 24-well in plates coated with matrigel and were cultured at 33° C. for 4 days under permissive conditions, as described previously by Fryer et al. (Diabetes 49 (12): 1978, 2000).
For differentiation in muscle, cells were switched to non-permissive culture conditions (37° C. in the absence of interferon-γ). After 3 days, cells were incubated for 4 hours in DMEM 1 g/l glucose culture medium containing different concentrations of the tested molecules. Then glucose uptake was measured by incubating the cells for 10 min with radiolabelled 2-deoxy-D-[1,2 ^3H] glucose. Glucose uptake was terminated by rapidly washing the plates 2 times with ice-cold NaCl 0.9%. The cells were then solubilized in 0.1N NaOH for 30 min. Radioactivity was determined by liquid scintillation counting.
as §1
Activity (table III): Concentration of compound (I) for a glucose uptake equal or higher to glucose uptake induced by insulin (170 nM)
^++ or **concentration of compound (I) ≦10 micro Molar
^+ or *concentration of compound (I) >10 micro Molar

Compound | activity: Ratio between the % of control (basal activity) of compound of formula (I) at 30 μM and the % of control (basal activity) of AMP at 30 μM [1] [%] | Activity (table III): Concentration of compound (I) for a glucose uptake equal or higher to glucose uptake induced by insulin (170 nM) (H-2 Kb cells)
Cc1ccccc1-c1c(O)c2c(-c3ccccc3)c(Cl)sc2[nH]c1=O [Compound 164] | 354 | + (^+ or *concentration of compound (I) >10 micro Molar)
O=c1[nH]c2sc(Cl)c(-c3ccc4ccccc4c3O)c2c(O)c1-c1ccc(F)cc1 [Compound 185] | 284 | ++ (^++ or **concentration of compound (I) ≦10 micro Molar)
O=c1[nH]c2sc(Cl)c(-c3ccc(O)c(F)c3)c2c(O)c1-c1ccccc1 [Compound 109] | 200 | ** (^++ or **concentration of compound (I) ≦10 micro Molar)
O=c1[nH]c2sc(Cl)c(-c3cc(F)ccc3O)c2c(O)c1-c1ccccc1 [Compound 108] | 305 | * (^+ or *concentration of compound (I) >10 micro Molar)
O=c1[nH]c2scc(-c3ccc(Cl)cc3)c2c(O)c1-c1ccccc1 [Compound 26] | 128 | * (^+ or *concentration of compound (I) >10 micro Molar)
COc1ccc(-c2c(Cl)sc3[nH]c(=O)c(-c4ccccc4)c(O)c23)cc1OC [Compound 190] | 256 | + (^+ or *concentration of compound (I) >10 micro Molar)
COc1cc(F)ccc1-c1c(Cl)sc2[nH]c(=O)c(-c3ccccc3)c(O)c12 [Compound 187] | 124 | + (^+ or *concentration of compound (I) >10 micro Molar)
O=c1[nH]c2sc(Cl)c(-c3ccccc3)c2c(O)c1-c1ccc(O)cc1 [Compound 156] | 95 | ** (^++ or **concentration of compound (I) ≦10 micro Molar)
COc1ccc(-c2csc3[nH]c(=O)c(-c4ccccc4)c(O)c23)c(F)c1 [Compound 63] | 115 | * (^+ or *concentration of compound (I) >10 micro Molar)
O=c1[nH]c2sc(Cl)c(-c3ccc4ccccc4c3)c2c(O)c1-c1ccccc1 [Compound 137] | 129 | * (^+ or *concentration of compound (I) >10 micro Molar)
O=c1[nH]c2sc(Cl)c(-c3ccccc3O)c2c(O)c1-c1ccccc1 [Compound 121] | 143 | * (^+ or *concentration of compound (I) >10 micro Molar)
COc1cc(-c2c(Cl)sc3[nH]c(=O)c(-c4ccccc4)c(O)c23)ccc1C [Compound 103] |  | * (^+ or *concentration of compound (I) >10 micro Molar)
Cc1ccc(-c2c(Cl)sc3[nH]c(=O)c(-c4ccccc4)c(O)c23)cc1O [Compound 102] |  | ** (^++ or **concentration of compound (I) ≦10 micro Molar)
Cc1ccc(-c2c(Cl)sc3[nH]c(=O)c(-c4cccc(C#N)c4)c(O)c23)c(O)c1 [Compound 101] |  | * (^+ or *concentration of compound (I) >10 micro Molar)
O=c1[nH]c2scc(-c3ccc(Br)cc3O)c2c(O)c1-c1ccccc1 [Compound 77] | 257 | 
O=c1[nH]c2scc(-c3ccc(O)cc3O)c2c(O)c1-c1ccccc1 [Compound 61] | 146 | 
COc1cc(-c2csc3[nH]c(=O)c(-c4ccccc4)c(O)c23)ccc1Br [Compound 73] | 94 | 
COc1ccc(O)c(-c2csc3[nH]c(=O)c(-c4ccccc4)c(O)c23)c1 [Compound 79] | 593 | 
NC(=NO)c1cccc(-c2c(O)c3c(-c4ccccc4)c(Cl)sc3[nH]c2=O)c1 [Compound 146] | 103 | 
O=c1[nH]c2sc(Cl)c(-c3ccccc3)c2c(O)c1-c1ccccc1O [Compound 159] | 164 | 
O=c1[nH]c2scc(-c3ccccc3F)c2c(O)c1-c1ccccc1 [Compound 56] | 107 | 
O=c1[nH]c2scc(-c3cc(O)cc(O)c3)c2c(O)c1-c1ccccc1 [Compound 68] | 96 | 
Cc1ccc(-c2csc3[nH]c(=O)c(-c4cccc(C#N)c4)c(O)c23)c(O)c1 [Compound 87] | 287 | 
O=c1[nH]c2scc(-c3cccc(O)c3)c2c(O)c1-c1ccccc1 [Compound 48] | 109 | 
O=c1[nH]c2scc(-c3ccccc3)c2c(O)c1-c1ccccc1 [Compound 16] | 107 | 
NC(=O)c1ccc(-c2c(O)c3c(-c4ccccc4)c(Cl)sc3[nH]c2=O)cc1 [Compound 151] | 134 | 
O=c1[nH]c2scc(-c3cccc(F)c3)c2c(O)c1-c1ccccc1 [Compound 49] | 131 | 
CNC(=O)c1ccc(-c2c(O)c3c(-c4ccccc4)c(Cl)sc3[nH]c2=O)cc1 [Compound 150] | 130 | 
